# Experiments:
# [1] = ACMIA assay for tacrolimus on unknown samples known to contain endogeneous interfering substances; settings: for Estimated True: [Y]+[Z]; for Free drug: [Z]=0.218[Y]+0.0981
# Method: Testing is carried out using the DIMENSION® RxL analyzer, available from Siemens Healthcare Diagnostics Inc., Newark Del. The instrument is employed using ACMIA immunoassay technology. The ACMIA assay method is described in U.S. Pat. Nos. 7,186,518, 5,147,529, 5,128,103, 5,158,871, 4,661,408, 5,151,348, 5,302,532, 5,422,284, 5,447,870, and 5,434,051, the disclosures of which are incorporated herein in their entirety. In the embodiment of the ACMIA method used herein and discussed in more detail below, competition between tacrolimus analog on chrome particles and tacrolimus in patient samples for antibody for tacrolimus conjugated to an enzyme (the “conjugate”) is utilized to determine the amount of tacrolimus in patient samples. Conjugate that binds to the tacrolimus analog on chrome particles is removed by magnetic separation. The enzymatic activity from conjugate remaining in the supernatant is measured and is directly proportional to the amount of tacrolimus in the patient sample. In the ACMIA assay format employed, the enzymatic activity observed when testing a sample containing no tacrolimus is indicative of the amount of enzymatic activity that is not bound to active antibody (i.e., cannot bind tacrolimus on chrome particles). The enzymatic activity observed when no chrome particle is present is indicative of the total amount of enzymatic activity in the conjugate. These values can be used to estimate the percent of enzymatic activity bound to active antibody. The ACMIA assay for tacrolimus is as follows: 15 μL of a whole blood samples I-V from above (substantially free from endogeneous interfering substances and spiked with tacrolimus) is mixed with the SIRO displacement solution (Table 1) in a vessel on the DIMENSION® RxL analyzer. The whole blood is sampled from a standard cup by first mixing the blood with the ultrasonic sample probe. The mixing of whole blood sample with the SIRO displacement solution ensures the displacement of the bound tacrolimus molecules from their binding sites when the SIRO molecules are present. As a result, the signal generated from this assay is related to the amount of free tacrolimus analyte plus the amount of displaced tacrolimus analyte (bound analyte) in the sample. Anti-tacrolimus antibody-β-galactosidase conjugate (50 μL) is added next to each of the reaction vessels and the mixture is held for a period of time (10 to 15 minutes) and at a temperature of 43° C. to allow tacrolimus, if present, to react with the antibody reagent. Chrome particles with immobilized tacrolimus-CM0-DA10-Dexal are added (50 μL) to each of the reaction vessels and are allowed to bind un-bound conjugate. […] The tacrolimus-bound conjugate is detected by transferring the supernatant from each of the reaction vessels to a photometric cuvette and measuring the enzymatic rate of the conjugate in the presence of chlorophenol red-β-D-galactopyranoside (CPRG). The rate for each reaction vessel is measured bichromatically at 577 and 700 nm. The above ACMIA assay is then carried out on unknown samples known to contain endogeneous interfering substances. Samples are obtained from various hospitals and are identified as set forth in first column of Table 3 below. The concentration of bound tacrolimus [Y] is determined as described above. The equation [Z]=0.218[Y]+0.0981 with the values for “a” and “b” determined as discussed above for this ACMIA assay is used to determine a concentration of free tacrolimus [Z] in the samples. The estimated true total concentration of tacrolimus [X] in each sample is determined by adding [Y]+[Z].
# [2] = system: endogeneous binding proteins; assay: ACMIA assay for tacrolimus on spiked whole blood samples with and without SIRO displacing agent (free vs bound tacrolimus); type: in vitro ADME; settings: for Protein-Bound: +SIRO minus −SIRO; for +SIRO ng/mL (free plus bound tacrolimus): with SIRO displacer
# Method: Testing is carried out using the DIMENSION® RxL analyzer, available from Siemens Healthcare Diagnostics Inc., Newark Del. The instrument is employed using ACMIA immunoassay technology. The ACMIA assay method is described in U.S. Pat. Nos. 7,186,518, 5,147,529, 5,128,103, 5,158,871, 4,661,408, 5,151,348, 5,302,532, 5,422,284, 5,447,870, and 5,434,051, the disclosures of which are incorporated herein in their entirety. In the embodiment of the ACMIA method used herein and discussed in more detail below, competition between tacrolimus analog on chrome particles and tacrolimus in patient samples for antibody for tacrolimus conjugated to an enzyme (the “conjugate”) is utilized to determine the amount of tacrolimus in patient samples. Conjugate that binds to the tacrolimus analog on chrome particles is removed by magnetic separation. The enzymatic activity from conjugate remaining in the supernatant is measured and is directly proportional to the amount of tacrolimus in the patient sample. In the ACMIA assay format employed, the enzymatic activity observed when testing a sample containing no tacrolimus is indicative of the amount of enzymatic activity that is not bound to active antibody (i.e., cannot bind tacrolimus on chrome particles). The enzymatic activity observed when no chrome particle is present is indicative of the total amount of enzymatic activity in the conjugate. These values can be used to estimate the percent of enzymatic activity bound to active antibody.
# Tacrolimus-free whole blood pools are screened by running the above mentioned ACMIA assay to identify whole blood pools that are substantially free from endogenous interfering substances. The screening is carried out by examining the consistency of tacrolimus recoveries of the pools to the individual tacrolimus-free whole blood samples. If the recoveries of the majority of the tacrolimus-free whole blood samples are within the low end sensitivity of the assay when the pool is used as the tacrolimus-free calibrator, the pool is accepted as a matrix free from endogenous interfering substances. The pool is then used to make the tacrolimus calibrators (or standards) by spiking different amounts of pure tacrolimus into the pool. The calibrators (which are substantially free from endogenous interfering substances) are then employed to generated the relationship of [Z]=a[Y]+b during the method calibration, which is achieved by testing the calibrators in the presence and absence of a displacing agent (sirolimus). Both [Z] and [Y] are generated from the calibration. The [Z] values of the calibrators are generated by running the calibrators in the absence of the displacing agent (representing the free drug) and the [Y] values of the calibrators are generated by subtracting the [Z] value from the total drug measured in the presence of the displacing agent (representing the bound drug). Calibrators made from a whole blood pool that is substantially free from endogeneous interfering substances are selected for use in the experiments below.
# The whole blood pool substantially free from endogeneous interfering substances identified above is used. Aliquots (100 mL) of the whole blood pool are spiked with various amounts of tacrolimus so that the resulting concentration of tacrolimus in the whole blood samples is 0, 2.8, 6.0, 11.9 and 31.3 ng/mL (samples I-V).
# A set of samples I-V is treated as follows: To each sample is added a sirolimus (SIRO) displacing agent for displacing tacrolimus in the sample from endogeneous binding proteins. The formulation for the SIRO displacement solution is set forth in more detail in Table 1.
# The samples are incubated at 37° C. for a period of 140 minutes in the presence of displacing agent to displace tacrolimus from endogeneous binding substances. […]
# [3] = ACMIA assay for tacrolimus on unknown samples known to contain endogeneous interfering substances
# [4] = system: endogeneous binding proteins; assay: ACMIA assay for tacrolimus on spiked whole blood samples with and without SIRO displacing agent (free vs bound tacrolimus); type: in vitro ADME; settings: without SIRO
structure (smiles),measurement,setting,value
C=CC[C@@H]1/C=C(\C)C[C@H](C)C[C@H](OC)[C@H]2O[C@@](O)(C(=O)C(=O)N3CCCC[C@H]3C(=O)O[C@H](/C(C)=C/[C@@H]3CC[C@@H](O)[C@H](OC)C3)[C@H](C)[C@@H](O)CC1=O)[C@H](C)C[C@@H]2OC [tacrolimus],Bound drug,[1]; sample 09-238-057,0.0 ng/mL
same,ng/mL + displacer,[1]; sample 09-238-057,32.7 ng/mL
same,ng/mL − displacer,[1]; sample 09-238-057,36.1 ng/mL
same,Estimated True,[1]; sample 09-238-057,0.0 ng/mL
same,Free drug,[1]; sample 09-238-057,0.0 ng/mL
same,Bound drug,[1]; sample 109,0.0 ng/mL
same,ng/mL + displacer,[1]; sample 109,16.4 ng/mL
same,ng/mL − displacer,[1]; sample 109,21.3 ng/mL
same,Estimated True,[1]; sample 109,0.0 ng/mL
same,Free drug,[1]; sample 109,0.0 ng/mL
same,Bound drug,[1]; sample 864408,2.3 ng/mL
same,ng/mL + displacer,[1]; sample 864408,27.7 ng/mL
same,Estimated True,[1]; sample 864408,2.9 ng/mL
same,Free drug,[1]; sample 864408,0.6 ng/mL
same,Bound drug,[1]; sample Dussel,2.3 ng/mL
same,ng/mL + displacer,[1]; sample Dussel,14.4 ng/mL
same,Estimated True,[1]; sample Dussel,2.9 ng/mL
same,Free drug,[1]; sample Dussel,0.6 ng/mL
same,Bound drug,[1]; sample FP15,7.1 ng/mL
same,ng/mL + displacer,[1]; sample FP15,10.9 ng/mL
same,Estimated True,[1]; sample FP15,8.7 ng/mL
same,Free drug,[1]; sample FP15,1.6 ng/mL
same,Protein-Bound,[2]; BV 2.8 ng/mL,2.1 ng/mL
same,+SIRO ng/mL (free plus bound tacrolimus),[2]; BV 2.8 ng/mL,2.8 ng/mL
same,Protein-Bound,[2]; BV 6.0 ng/mL,4.9 ng/mL
same,+SIRO ng/mL (free plus bound tacrolimus),[2]; BV 6.0 ng/mL,6.0 ng/mL
same,Protein-Bound,[2]; BV 11.9 ng/mL,9.7 ng/mL
same,+SIRO ng/mL (free plus bound tacrolimus),[2]; BV 11.9 ng/mL,11.9 ng/mL
same,Protein-Bound,[2]; BV 31.3 ng/mL,25.6 ng/mL
same,+SIRO ng/mL (free plus bound tacrolimus),[2]; BV 31.3 ng/mL,31.3 ng/mL
same,ng/mL − displacer,[3]; sample 864408,25.4 ng/mL
same,ng/mL − displacer,[3]; sample Dussel,12.2 ng/mL
same,ng/mL − displacer,[3]; sample FP15,3.8 ng/mL
same,−SIRO ng/mL (free tacrolimus),[4]; BV 2.8 ng/mL,0.7 ng/mL
same,−SIRO ng/mL (free tacrolimus),[4]; BV 6.0 ng/mL,1.2 ng/mL
same,−SIRO ng/mL (free tacrolimus),[4]; BV 11.9 ng/mL,2.2 ng/mL
same,−SIRO ng/mL (free tacrolimus),[4]; BV 31.3 ng/mL,5.7 ng/mL

# — US9658218B2, “Determination of total analyte concentration” (Siemens Healthcare Diagnostics Inc., priority 2012, dated 2017)
